Results from PubChem BioAssay (NCI).
“And” between values parts separate entries of the source, which are not always exact repeats. Equal values may be shown once.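 Five compound concentrations were applied to cells in 96-well plates for 48 hours; endpoints were derived by simple linear interpolation of the resulting dose-response curve. Here, GI50 denotes the concentration required for 50% inhibition of growth. TGI: total growth inhibition.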

Experiments:
Test in all cases: DTP human tumour cell line panel, 48 h
MDA-MB-231 breast = test system: MDA-MB-231 breast
UACC-257 melanoma = test system: UACC-257 melanoma
SNB-75 CNS = test system: SNB-75 CNS
NCI-H522 lung = test system: NCI-H522 lung
UACC-62 melanoma = test system: UACC-62 melanoma
MOLT-4 leukemia = test system: MOLT-4 leukemia
CCRF-CEM leukemia = test system: CCRF-CEM leukemia
NCI-H23 lung = test system: NCI-H23 lung
T-47D breast = test system: T-47D breast
OVCAR-5 ovarian = test system: OVCAR-5 ovarian

SMILES | TGI (MDA-MB-231 breast) | TGI (UACC-257 melanoma) | TGI (SNB-75 CNS) | TGI (NCI-H522 lung) | TGI (UACC-62 melanoma) | TGI (MOLT-4 leukemia) | TGI (CCRF-CEM leukemia) | TGI (NCI-H23 lung) | TGI (T-47D breast) | TGI (OVCAR-5 ovarian) | GI50 (MDA-MB-231 breast) | GI50 (UACC-257 melanoma) | GI50 (SNB-75 CNS) | GI50 (NCI-H522 lung) | GI50 (UACC-62 melanoma) | GI50 (MOLT-4 leukemia) | GI50 (CCRF-CEM leukemia) | GI50 (NCI-H23 lung) | GI50 (T-47D breast) | GI50 (OVCAR-5 ovarian)
CC(=O)SC(C[N+](=O)[O-])c1ccc2c(c1)OCO2 (stereo not given) | 22.3 µM | 22.3 µM | 41.1 µM | 10.4 µM | 11.3 µM | 19.9 µM | > 46.4 µM | 34.6 µM | 65.7 µM | 16 µM |  |  |  |  |  |  |  |  |  | 
CN1CCCOC(c2ccc(Cl)cc2)O1 (stereo not given) | > 100 µM | > 100 µM | > 100 µM | > 100 µM | > 100 µM | > 100 µM | > 100 µM | > 100 µM | > 100 µM | > 100 µM |  |  |  |  |  |  |  |  |  | 
O=C1/C(=C\c2cccc(Oc3ccccc3)c2)S(=O)(=O)C(c2ccccc2)N1c1cccc(Cl)c1 (stereo not given) | > 100 µM | > 100 µM | > 100 µM | > 100 µM | > 100 µM | > 100 µM | 83.9 µM | > 100 µM | > 100 µM | > 100 µM |  |  |  |  |  |  |  |  |  | 
Cc1ccc2c(c1)CC1(Cc3cccc(C)c3C1=O)C2=O (stereo not given) | > 100 µM | > 100 µM | > 100 µM | > 100 µM | > 100 µM | > 100 µM | > 100 µM | > 100 µM | > 10 µM | > 100 µM |  |  |  |  |  |  |  |  |  | 
O=C(N[C@@H](Cc1coc2ccccc12)B(O)O)[C@@H]1C[C@H]2CC[C@@H]1O2 | > 100 µM | > 100 µM | 38.2 µM | 81.6 µM | 55.2 µM | 48 µM | > 100 µM | > 100 µM | > 100 µM | > 100 µM | 11.7 µM | 6.28 µM | 2.78 µM | 5.04 µM | 5.29 µM | 2.96 µM | 1.2 µM | 9.18 µM | 2.77 µM | 6.8 µM
CCOP(=O)(OCC)/C(C#N)=C/c1ccc(-c2cc(C(F)(F)F)cc(C(F)(F)F)c2)o1 | 26.8 µM | 30.6 µM | 27.9 µM | 24.6 µM |  | 21.8 µM | 34.3 µM | 31.1 µM | 40 µM | 26.1 µM |  |  |  |  |  |  |  |  |  | 
CCC1CC(O)c2c(O)c3c(c(O)c2C1O)C(=O)c1cccc(O)c1C3=O (stereo not given) (tested in a mixture with another compound) | 0.164 µM and 0.404 µM | 0.0941 µM and 0.0404 µM | 0.049 µM and 0.0426 µM | 0.0658 µM | 0.0396 µM | 0.0755 µM and 0.0479 µM | 0.085 µM and 0.0441 µM | 0.0795 µM and 0.186 µM | 0.18 µM and 0.0352 µM | 0.0301 µM | 0.0118 µM | 0.0101 µM |  |  |  |  |  |  |  | 
CC1CC(Nc2ccc(Br)cc2)N(C(=O)c2ccc(Br)cc2)O1 (stereo not given) | > 10 µM | > 10 µM | > 10 µM | > 10 µM |  | > 10 µM | > 10 µM | > 10 µM | > 10 µM | > 10 µM |  |  |  |  |  |  |  |  |  | 
COc1ccc(C2(CC(C)C)CCN(S(=O)(=O)c3ccc(C)cc3)C2)cc1OC (stereo not given) | > 100 µM | > 100 µM | > 100 µM | > 100 µM | > 100 µM | 17.4 µM | 64.3 µM | > 100 µM | > 100 µM | > 100 µM |  |  |  |  |  |  |  |  |  | 
COc1ccc2nc(-c3ccccc3)c(=O)[nH]c2c1 | > 100 µM | > 100 µM | > 100 µM | > 100 µM | > 100 µM | > 100 µM | > 100 µM | > 100 µM | > 100 µM | > 100 µM |  |  |  |  |  |  |  |  |  | 
O=c1cc(CF)[nH]c(=S)[nH]1 | > 100 µM | > 100 µM | > 100 µM | > 100 µM | > 100 µM | > 100 µM | > 100 µM | > 100 µM | > 100 µM | > 100 µM |  |  |  |  |  |  |  |  |  | 
O=c1[nH]nc(Cc2ccc(Cl)cc2)n1/N=C/c1cccs1 | 49.7 µM | > 100 µM | 49.9 µM | 68.8 µM | > 100 µM | > 100 µM | > 100 µM | > 100 µM | > 100 µM | > 100 µM |  |  |  |  |  |  |  |  |  | 
CC1(C)O[C@H]2OC(CO)C(N=[N+]=[N-])[C@H]2O1 (stereo not given in full) | > 100 µM | > 100 µM | > 100 µM | > 100 µM | > 100 µM | > 100 µM | > 100 µM | > 100 µM | > 100 µM | > 100 µM |  |  |  |  |  |  |  |  |  | 
COCn1cnc2c(=O)nc(SC)n(-c3ccccc3)c21 | > 100 µM | > 100 µM | > 100 µM | > 100 µM | > 100 µM | > 100 µM | > 100 µM | > 100 µM | > 100 µM | > 100 µM |  |  |  |  |  |  |  |  |  | 
CN1CC=C(c2c(N)nc(N)[nH]c2=O)CC1 | > 100 µM | > 100 µM | > 100 µM | > 100 µM | > 100 µM | > 100 µM | > 100 µM | > 100 µM | > 100 µM | > 100 µM |  |  |  |  |  |  |  |  |  | 
O=c1[nH]c2nc3ccccc3c(=O)n2/c1=C/c1cccs1 | > 100 µM | > 100 µM | > 100 µM | > 100 µM | > 100 µM | > 100 µM | > 100 µM | > 100 µM | > 100 µM | > 100 µM |  |  |  |  |  |  |  |  |  | 
CC(NC(=O)Cc1ccccc1)NC(=O)C(C)C(=O)NCc1ccccc1 (stereo not given) | > 100 µM | > 100 µM | > 100 µM | > 100 µM | > 100 µM | > 100 µM | > 100 µM | > 100 µM | > 100 µM | > 100 µM |  |  |  |  |  |  |  |  |  | 
C(=Nc1ccc2c(c1)Cc1ccccc1-2)c1ccccn1 | > 100 µM | 79.1 µM | > 100 µM | > 100 µM | > 100 µM | > 100 µM | > 100 µM | > 100 µM | > 100 µM | > 100 µM |  |  |  |  |  |  |  |  |  | 
CCOC(=O)C(Cc1ccc(O)cc1)Nc1nc(=O)c2c(=O)oc(Cl)cc2o1 (stereo not given) | 23.1 µM | 29.7 µM | 18.6 µM | 19.9 µM | 28.5 µM | 10.1 µM | 23.4 µM | 40.5 µM | 25.7 µM | 34.7 µM |  |  |  |  |  |  |  |  |  | 
